Measurements taken from patent US20230114241A1, “METHODS OF TREATING EPILEPSY USING THE SAME” (Trevena, Inc., priority 2019, published 2023).

Key:
[1] = target: T1, human sphingosine-1-phosphate receptor 1 (S1P1) (Homo sapiens, UniProt P21453); assay: Inhibition of cAMP production (HTRF cAMP HiRange), S1P1 CHO-K1 cells; format: cell-based; conditions: for Emax: CHO-K1, efficacy normalized to maximum efficacy of fingolimod, read-out: hS1P1 CAMP SPAN; for EC50: read-out: hS1P1 CAMP pEC50 (converted)
How it was run: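 CHO-K1 cells co-expressing human S1P1 (C-terminal ProLink tag) and EA-β-arrestin2, plated overnight; after 30 min compound incubation at 37 °C, intracellular cAMP measured by HTRF TR-FRET following 1 h at room temperature. Values normalized to fingolimod.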
Target sequence in this assay (P21453 whole entry): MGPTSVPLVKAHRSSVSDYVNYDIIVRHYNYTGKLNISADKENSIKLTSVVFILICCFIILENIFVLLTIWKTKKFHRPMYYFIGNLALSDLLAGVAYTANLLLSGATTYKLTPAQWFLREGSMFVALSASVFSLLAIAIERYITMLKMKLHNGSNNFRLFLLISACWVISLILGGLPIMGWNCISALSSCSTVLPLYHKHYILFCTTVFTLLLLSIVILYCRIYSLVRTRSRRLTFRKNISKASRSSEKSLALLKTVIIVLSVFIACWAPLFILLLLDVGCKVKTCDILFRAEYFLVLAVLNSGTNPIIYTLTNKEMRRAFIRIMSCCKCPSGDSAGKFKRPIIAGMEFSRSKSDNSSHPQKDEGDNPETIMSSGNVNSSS

[2] = target: T1, human sphingosine-1-phosphate receptor 1 (S1P1); assay: β-Arrestin2 recruitment assay (PathHunter), S1P1 CHO-K1 cells; format: cell-based; conditions: for Emax: efficacy normalized to maximum efficacy of fingolimod, read-out: hS1P1 B-arrestin2 SPAN; for EC50: β-arrestin2 recruitment, read-out: hS1P1 B-arrestin2 pEC50 (converted)
Procedure: Stable clonal Chinese hamster ovary K1 (CHO-K1) cells co-expressing EA-β-arrestin2 and the human sphingosine-1-phosphate receptor 1 (NM_001400, S1P1) with a C-terminal Prolink™ tag were purchased from DiscoverX corporation (Cat #: 93-0207C2).
Cell lines were cultured in AssayComplete™ Media 6 (DiscoverX Corporation, Cat #: 920018GF2) at 37° C. and 5% CO2 in a humidified CO2 and temperature-controlled incubator. To begin assay plating, cells were washed with Dulbecco's phosphate buffered saline (CellGro, Cat #: 21-031-CV) and lifted from the culturing flask by incubation (37° C., 5 min) with CellStripper (Cellgro, Cat #: 25-056-CI). […] Plated cells were incubated overnight at 37° C. and 5% CO2 in a humidified CO2 and temperature-controlled incubator.
Agonist-promoted β-arrestin2 recruitment to the sphingosine-1-phosphate 1 receptor was determined using the β-arrestin PathHunter® Detection kit (DiscoverX Corporation, Cat #: 93-0001). […] In cells that stably express these fusion proteins, stimulation with a cognate agonist results in the interaction of β-arrestin2 and the Prolink™-tagged GPCR. This allows the complementation of the two β-galactosidase fragments and results in the formation of a functional enzyme with β-galactosidase activity. […] Following a 60 minute incubation at 37° C. and 5% CO2 in a humidified CO2 and temperature-controlled incubator, the components of the β-arrestin PathHunter® Detection kit were added as per the manufacturer's instructions. After an hour incubation at room temperature, plates were analyzed by a BMG PheraStar microplate reader.
These values are normalized to fingolimod, a known agonist of the sphingosine-1-phosphate 1 receptor.
Target sequence in this assay (P21453 whole entry): as above
Target sequence in this assay (P32121 whole entry partner): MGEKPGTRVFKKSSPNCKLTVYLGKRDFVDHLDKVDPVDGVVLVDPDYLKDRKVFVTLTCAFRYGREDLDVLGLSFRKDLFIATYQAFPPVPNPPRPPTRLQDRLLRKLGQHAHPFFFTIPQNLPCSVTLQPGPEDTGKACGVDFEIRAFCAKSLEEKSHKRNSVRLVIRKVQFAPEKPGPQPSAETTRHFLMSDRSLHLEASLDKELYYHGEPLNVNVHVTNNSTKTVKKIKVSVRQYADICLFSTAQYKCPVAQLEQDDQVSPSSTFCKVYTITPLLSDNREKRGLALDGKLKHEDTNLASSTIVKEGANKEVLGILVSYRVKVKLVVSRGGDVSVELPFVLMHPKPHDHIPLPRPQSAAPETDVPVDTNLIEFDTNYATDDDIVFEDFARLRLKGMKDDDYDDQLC

[3] = inhibition of cAMP production, S1P1
[4] = inhibition of cAMP production, potency
[5] = CHO-K1, β-arrestin2 recruitment

Row | Structure (SMILES) | EC50 [1, 3] [nM] | EC50 [1, 4] [nM] | also measured
1 | CCC1(CC)CC(=O)c2cc(-c3nc(-c4cccs4)no3)ccc2O1 [Compound 467, 2,2-diethyl-6-(3-(thiophen-2-yl)-1,2,4-oxadiazol-5-yl)chroman-4-one] | < 316 |  | Emax [1]: > 75%; Emax ([2]; CHO-K1): > 75%; EC50 ([2]; S1P1): < 10000 nM
2 | CCC1(CC)CC(=O)c2cc(-c3nc(-c4cccc(OC)n4)no3)ccc2O1 [Compound 553, 2,2-diethyl-6-[3-(6-methoxypyridin-2-yl)-1,2,4-oxadiazol-5-yl]-3,4-dihydro-2H-1-benzopyran-4-one] | > 316 |  | Emax [1]: > 75%; Emax ([2]; CHO-K1): < 75%; EC50 ([2]; S1P1): < 10000 nM
3 | CCCn1nnc2cc(-c3nc(-c4ccc(F)cc4)no3)ccc21 [Compound 5, 5-[3-(4-fluorophenyl)-1,2,4-oxadiazol-5-yl]-1-propyl-1H-1,2,3-benzotriazole] |  | > 316 | Emax ([1]; inhibition of cAMP production): < 75%; Emax [2, 5]: < 75%; EC50 ([2]; potency): > 10000 nM
4 | CCC1(CC)CC(=O)c2cc(-c3nc(-c4cncc(C)c4)no3)ccc2O1 [Compound 563, 2,2-diethyl-6-(3-(5-methylpyridin-3-yl)-1,2,4-oxadiazol-5-yl)chroman-4-one] | < 316 |  | Emax [1]: > 75%; Emax ([2]; CHO-K1): < 75%; EC50 ([2]; S1P1): < 10000 nM
5 | FC(F)(F)c1cccc(-c2noc(-c3ccc4c(c3)nnn4C3CCCC3)n2)c1 [Compound 118, 1-cyclopentyl-5-{3-[3-(trifluoromethyl)phenyl]-1,2,4-oxadiazol-5-yl}-1H-1,2,3-benzotriazole] |  | > 316 | Emax ([1]; inhibition of cAMP production): < 75%; Emax [2, 5]: < 75%
6 | CC(C)n1ccc2cc(-c3noc(-c4ccc(F)cc4)n3)ccc21 [Compound 400, 5-(4-fluorophenyl)-3-(1-isopropyl-1H-indol-5-yl)-1,2,4-oxadiazole] | > 316 |  | Emax [1]: < 75%; Emax ([2]; CHO-K1): < 75%; EC50 ([2]; S1P1): > 10000 nM
7 | Cc1nccnc1-c1nc(-c2ccc3c(c2)nnn3C(C)C)no1 [Compound 44, 3-(1-isopropyl-1H-benzo[d][1,2,3]triazol-5-yl)-5-(3-methylpyrazin-2-yl)-1,2,4-oxadiazole] |  | > 316 | Emax ([1]; inhibition of cAMP production): < 75%; Emax [2, 5]: < 75%; EC50 ([2]; potency): > 10000 nM
8 | Cc1ccccc1-c1nc(-c2ccc3c(c2)nnn3C(C)(C)CO)no1 [Compound 609, 2-methyl-2-(5-(5-(o-tolyl)-1,2,4-oxadiazol-3-yl)-1H-benzo[d] [1,2,3]triazol-1-yl)propan-1-ol] | < 316 |  | Emax [1]: < 75%; Emax ([2]; CHO-K1): < 75%; EC50 ([2]; S1P1): > 10000 nM
9 | CCn1nnc2cc(-c3noc(-c4ccccc4Br)n3)ccc21 [Compound 2, 5-(2-bromophenyl)-3-(1-ethyl-1H-benzo[d][1,2,3]triazol-5-yl)-1,2,4-oxadiazole] |  |  | EC50 ([2]; potency): < 10000 nM
10 | COc1ccc(-c2noc(-c3ccc4c(c3)nnn4C3CCCC3)n2)cc1C(F)(F)F [Compound 197, 1-cyclopentyl-5-{3-[4-methoxy-3-(trifluoromethyl)phenyl]-1,2,4-oxadiazol-5-yl}-1H-1,2,3-benzotriazole] |  | > 316 | 
11 | COc1cc(C)c2nc(-c3ccc4c(c3)nnn4C(C)C)oc2c1 [Compound 436, 2-(1-isopropyl-1H-benzo[d][1,2,3]triazol-5-yl)-6-methoxy-4-methylbenzo[d]oxazole] | < 316 |  | 
12 | CC(C)n1ccc2cc(-c3nc(-c4ccccc4O)no3)ccc21 [Compound 323, 2-(5-(1-isopropyl-1H-indol-5-yl)-1,2,4-oxadiazol-3-yl)phenol] |  | > 316 | 
13 | Brc1ccccc1-c1nc(-c2ccc3c(c2)nnn3CC2CC2)no1 [Compound 98, 5-(2-bromophenyl)-3-(1-(cyclopropylmethyl)-1H-benzo[d][1,2,3]triazol-5-yl)-1,2,4-oxadiazole] |  | > 316 | 
14 | Cc1ccccc1-c1c[nH]c(-c2ccc3c(c2)nnn3C(C)C)c1 [Compound 516, 5-[4-(2-methylphenyl)-1H-pyrrol-2-yl]-1-(propan-2-yl)-1H-1,2,3-benzotriazole] | > 316 |  | 
15 | COc1ccncc1-c1nc(-c2ccc3c(c2)nnn3C(C)C)no1 [Compound 605, 3-(1-isopropyl-1H-benzo[d][1,2,3]triazol-5-yl)-5-(4-methoxy-pyridin-3-yl)-1,2,4-oxadiazole] | < 316 |  | 
16 | COc1ccccc1-c1noc(-c2ccc3c(c2)nnn3C(C)C)n1 [Compound 286, 5-(1-isopropyl-1H-benzo[d][1,2,3]triazol-5-yl)-3-(2-methoxy-phenyl)-1,2,4-oxadiazole] |  | < 316 | 

Row | Structure (SMILES) | EC50 [1, 3] [nM] | EC50 [1, 4] [nM] | also measured
17 | CC(C)Oc1ccc(-c2nc(-c3ccc4c(c3)nnn4C3CCCC3)no2)cc1C(F)(F)F [Compound 14, 3-(1-cyclopentyl-1H-benzo[d][1,2,3]triazol-5-yl)-5-(4-isopropoxy-3-(trifluoromethyl)phenyl)-1,2,4-oxadiazole] |  | < 316 | 
18 | CC(C)n1nnc2cc(-c3nc4c(o3)CCCc3ccccc3-4)ccc21 [Compound 434, 4-[1-(propan-2-yl)-1H-1,2,3-benzotriazol-5-yl]-5-oxa-3-azatricyclo[8.4.0.0^2,6] tetradeca-1(14),2(6),3,10,12-pentaene] | > 316 |  | 
19 | COc1ccccc1-c1noc(-c2ccc3c(c2)nnn3C2CC2)n1 [Compound 173, 1-cyclopropyl-5-[3-(2-methoxyphenyl)-1,2,4-oxadiazol-5-yl]-1H-1,2,3-benzotriazole] |  | < 316 | 
20 | CCC1(CC)CC(=O)c2cc(-c3nc(-c4ccnc(C)c4)no3)ccc2O1 [Compound 315, 2,2-diethyl-6-(3-(2-methylpyridin-4-yl)-1,2,4-oxadiazol-5-yl)chroman-4-one] |  | < 316 | 
21 | c1cc(-c2noc(-c3ccc4c(c3)nnn4C3CC3)n2)ccn1 [Compound 295, 1-cyclopropyl-5-[3-(pyridin-4-yl)-1,2,4-oxadiazol-5-yl]-1H-1,2,3-benzotriazole] |  | > 316 | 
22 | CC(C)n1ncc2cc(-c3nc(-c4cccc5c4OCO5)no3)ccc21 [Compound 336, 3-(benzo[d][1,3]dioxol-4-yl)-5-(1-isopropyl-1H-indazol-5-yl)-1,2,4-oxadiazole] |  | < 316 | 
23 | CC(C)(CO)n1nnc2cc(-c3noc(-c4cccnc4F)n3)ccc21 [Compound 643, 2-(5-(5-(2-fluoro-pyridin-3-yl)-1,2,4-oxadiazol-3-yl)-1H-benzo[d][1,2,3]triazol-1-yl)-2-methylpropan-1-ol] | > 316 |  | 
24 | CCCn1nnc2cc(-c3nc(-c4ccncc4)no3)ccc21 [Compound 205, 1-propyl-5-[3-(pyridin-4-yl)-1,2,4-oxadiazol-5-yl]-1H-1,2,3-benzotriazole] |  | > 316 | 
25 | COc1ncccc1-c1nc(-c2ccc3c(c2)nnn3C(C)C)no1 [Compound 607, 3-(1-isopropyl-1H-benzo[d][1,2,3]triazol-5-yl)-5-(2-methoxy-pyridin-3-yl)-1,2,4-oxadiazole] | < 316 |  | 
26 | CCc1ncc(-c2noc(-c3ccc4c(c3)nnn4C(C)C)n2)cn1 [Compound 135, 5-[3-(2-ethylpyrimidin-5-yl)-1,2,4-oxadiazol-5-yl]-1-(propan-2-yl)-1H-1,2,3-benzotriazole] |  | > 316 | 
27 | c1cc(-c2noc(-c3ccc4c(c3)nnn4C3CCCC3)n2)ccn1 [Compound 174, 1-cyclopentyl-5-[3-(pyridin-4-yl)-1,2,4-oxadiazol-5-yl]-1H-1,2,3-benzotriazole] |  | < 316 | 
28 | CCC1(CC)CC(=O)c2cc(-c3nsc(-c4ccc5c(c4)nnn5C(C)C)n3)ccc2O1 [Compound 143, 2,2-diethyl-6-(5-(1-isopropyl-1H-benzo[d][1,2,3]triazol-5-yl)-1,2,4-thiadiazol-3-yl)chroman-4-one] |  | > 316 | 
29 | CCc1ccccc1-c1nc(-c2ccc3c(c2)nnn3C(C)(C)CO)no1 [Compound 624, 2-(5-(5-(2-ethyl-phenyl)-1,2,4-oxadiazol-3-yl)-1H-benzo[d][1,2,3]triazol-1-yl)-2-methyl-propan-1-ol] | > 316 |  | 
30 | O=C1CCOc2ccc(-c3nc(-c4cccnc4)no3)cc21 [Compound 102, 6-[3-(pyridin-3-yl)-1,2,4-oxadiazol-5-yl]-3,4-dihydro-2H-1-benzopyran-4-one] |  | > 316 | 
31 | CC(C)n1nnc2cc(-c3nc(-c4ccc5nncn5c4)no3)ccc21 [Compound 128, 1-(propan-2-yl)-5-(3-{[1,2,4]triazolo[4,3-a]pyridin-6-yl}-1,2,4-oxadiazol-5-yl)-1H-1,2,3-benzotriazole] |  | > 316 | 
